We go through 52 substances from article PMC4865845, “A human genome-wide loss-of-function screen identifies effective chikungunya antiviral drugs” (Nature Communications, 2016).

The data set deals with CHIKV. The data set is classed as cell-based, chikungunya virus.
In turn, “s12353 (sense GGCATGTCGGTTACAAGAA; chemistry not given here)” yielded a Score_si1 of 1.86.
Substance “s4918 (sense GGCACTTACTATGACAATT; chemistry not given here)” came in with a Score_si3 of 1.02.
The substance “s195060 (sense CCAGATCTATGAATTGGAA; chemistry not given here)” displayed a Score_si2 of 1.92.
Substance “Hs_WIG1_1 (CAGCATTTAGAGAGCAAGCAA; chemistry not given here)” yielded a Score_si1 of 2.55.
For the substance “Hs_SCLY_1 (sense CTGACTCAGCTTATACCTTAA; chemistry not given here)”, the Score_si3 is given as 1.21.
For the substance “s21425 (sense GCCTGTTACAGATGACATA; chemistry not given here)”, the Score_si3 stood at 0.63.
On to “s26801 (sense CCGAGAACCTCACAGAGAA; chemistry not given here)”, for which the Score_si1 is 2.26.
Substance “s29015 (GAGAGTATATTGACTATGA; chemistry not given here)” yielded a Score_si4 of 0.52.
In turn, “s37715 (CCGGAGAACCTGAAACTCA; chemistry not given here)” showed a Score_si2 of 1.43.
In the case of “Hs_FXC1_2 (sense CAAGTATTTGTTGGTTCATAA; chemistry not given here)”, the Score_si1 was found to be 2.83.
In turn, “s11586 (sense GGATAGTGTTCTTAGCAAT; chemistry not given here)” displayed a Score_si4 of 0.13.
As for “Hs_SIN3A_5 (sense GAGCGTGTAAGCAAGCGTCTA; chemistry not given here)”, the Score_si1 was found to be 2.49.
Turning to “s38778 (CCCTTCCTCTATTCGAACA; chemistry not given here)”, the Score_si4 is -0.27.
In turn, “Hs_ZBTB24_2 (CAGCATGTGTCTGTAATTGTA; chemistry not given here)” showed a Score_si1 of 2.57.
Turning to “s18076 (GAAATACCCTATTACCAAA; chemistry not given here) [reference compound]”, the Score_si3 is given as -0.61.
Take “Hs_ATP6AP2_5 (CAAGTGCTACATGATATTTCA; chemistry not given here)”: the Score_si3 was 0.69.
With “s9326 (GGACTTAGTATAATGTGAA; chemistry not given here)”, the Score_si2 worked out at 1.
In turn, “Hs_MGC11102_1 (TAGCGTGGCTTTAAACATATA; chemistry not given here)” yielded a Score_si2 of 1.11.
Same read-out and setting: under “Hs_GNG13_2 (sense CACGTGATTACAGTCTGTAAA; chemistry not given here)” stands 1.42.
For “s18077 (CCTGTTCATTGATCGAACA; chemistry not given here) [reference compound]”, the Score_si3 is reported as -0.59.
Substance “Hs_RAD51L3_2 (sense CTCACTCTCTGTAAGCATATA; chemistry not given here)” had a Score_si3 of 0.7.
The substance “Hs_PCBP1_3 (CACAACTTTATCATCCGCTAA; chemistry not given here)” showed a Score_si2 of 1.85.
On the same count and under the same terms, then “Hs_LOC407835_4 (sense CAGGGAGATCAGCATCTGCAT; chemistry not given here)”, with 0.79.
The substance “Hs_CDC25A_1 (sense AAGGCGCTATTTGGCGCTTCA; chemistry not given here)” showed a Score_si2 of 1.56.
Take “s195093 (sense AGCTGTCCCTCTTTGCTGT; chemistry not given here) [reference compound]”: the Score_si3 is -0.16.
Regarding “Hs_GP1BB_3 (sense CTGCTGCGTCTCCCTTCCAAA; chemistry not given here) [reference compound]”, the Score_si2 is listed as -0.99.
The substance “s20630 (sense GCAAGCTGCTGATCGAGTT; chemistry not given here)” displayed a Score_si4 of 0.85.
Take “Hs_NPEPL1_2 (CACCTTCCTCGAGGAGATTAA; chemistry not given here)”: the Score_si2 turned out to be 1.71.
In the case of “Hs_CCNF_7 (sense CACGGACAACACTTACAAGTA; chemistry not given here)”, the Score_si3 was found to be 0.92.
As for “Hs_SARS_2 (sense CTGATGAAACCATGTAATAAA; chemistry not given here)”, the Score_si1 is reported as 2.9.
On the same count and under the same terms, then “Hs_GAP43_1 (sense CCGGCTCAGCTGAGACAGAAA; chemistry not given here)”, with 2.5.
In the case of “s10956 (sense CAAGCGGATTTCTACCCTT; chemistry not given here)”, the Score_si1 was determined as 1.05.
For the substance “s15562 (sense GCTTAGAAATGGACGACGA; chemistry not given here) [reference compound]”, the Score_si3 was -0.27.
As for “s994 (GAGGAAGTCCTAAATCACA; chemistry not given here) [reference compound]”, the Score_si4 is 1.87.
For the substance “Hs_PGD_1 (TAGAAGTGTATTCCTAGGAAA; chemistry not given here)”, the Score_si1 was determined as 3.09.
As for “s17591 (CGATATGAACCTGACAGTA; chemistry not given here) [reference compound]”, the Score_si3 is recorded as -0.15.
Consider “s8292 (sense GGATTGTTATCCGACTGAA; chemistry not given here)”, for which the Score_si3 is recorded as 1.63.
With “Hs_PEX19_4 (CTGGATCTTATGCAGCAGCTA; chemistry not given here)”, the Score_si2 was found to be 0.89.
On to “Hs_GNB2L1_6 (sense AAGGATGGCCAGGCCATGTTA; chemistry not given here)”, for which the Score_si2 is on record as 1.62.
The same measure, in the same setting: under “Hs_CNOT1_1 (sense CAGCTGGAATGGCTATGATTA; chemistry not given here)” stands 2.61.
With “Hs_TGIF_6 (sense TCCAAGAACTATAAACTTAAA; chemistry not given here)”, the Score_si3 is listed as 1.
As for “Hs_PITRM1_3 (CAGCGTTGAAAGTTTCCGATA; chemistry not given here) [reference compound]”, the Score_si2 is listed as -1.16.
“Hs_HSPE1_4 (sense CTGAAATAAGTCACTATTGAA; chemistry not given here)”: the Score_si4 came out at 1.81.
As to “Hs_YEATS4_3 (AAAGGGTGTTACTATCGTTAA; chemistry not given here)”, the Score_si3 is recorded as 0.92.
The substance “Hs_UQCRFS1_1 (CAGCATGATCTAGATCGAGTA; chemistry not given here)” showed a Score_si1 of 3.18.
“Hs_DOK6_1 (TACGCCAAACCTGGATATTTA; chemistry not given here) [reference compound]”: the Score_si3 is given as -0.32.
For the substance “Hs_ULK2_6 (CAGCCTGAGATACGTGCCTTA; chemistry not given here) [reference compound]”, the Score_si1 was -2.62.
On to “s8324 (GCTGGGAAGGGATACCACA; chemistry not given here)”, for which the Score_si1 came out at 1.92.
On to “s9324 (ACAACTTCAGTGCTGATCA; chemistry not given here)”, for which the Score_si3 was found to be 0.83.
Substance “Hs_ANKRD9_1 (AAGAGAGGTATGGGACCTGAA; chemistry not given here)” gave a Score_si1 of 2.5.
“s31180 (CCATAGATGAGAAGCGGTT; chemistry not given here)” had a Score_si3 of 1.93.
Substance “Hs_F25965_1 (CAGCGAGAACACGCCACTGTA; chemistry not given here)” showed a Score_si1 of 1.49.
